Where no end group is shown, it is not given here.
Experiment: Serum stability assay
Format: in vitro ADME, human
Settings: peptide 6.6 μM
Description: The serum stability of the peptides was tested using human male serum (Sigma, USA), as previously described ([Chan et al., 2011]). All peptides were tested at a final concentration of 6.6 μM after dilution from a stock solution at 200 μM. The serum was centrifuged at 17,000g for 10 min to remove the lipid component, and the supernatant incubated at 37°C for 15 min, prior to conducting the assay. The peptides were incubated in serum or phosphate-buffered saline (PBS) at 37°C, and aliquots were taken at 0, 3, 8, and 24 h (40-μl aliquots were taken in triplicate). The aliquots of serum were quenched with 40 μl of 6 M urea and incubated for 10 min at 4°C. The aliquots were then quenched with 40 μl of 20% trichloroacetic acid (TCA) and incubated for another 10 min at 4°C to precipitate serum proteins. Finally, samples were centrifuged at 17,000g for 10 min, and 90 μl of the supernatant was analyzed on reversed-phase HPLC using a Phenomenex Jupiter Proteo C12 analytical column (150 mm × 2.00 mm, 4 μm, 90 Å, Phenomenex, Torrance, CA, USA) and a linear gradient of solvent B [90% acetonitrile/10% H2O, 0.045% trifluoroacetic acid (TFA)] at a flow rate of 0.4 ml/min using an Agilent 1260 Infinity system (Agilent Technologies, Hanover, Germany). The control samples contained equivalent amounts of the peptides in PBS and were subjected to the same treatment procedure. The stability at each time point was calculated based on the area of the RP-HPLC peaks following incubation with serum at 214 nm as a percentage of the area of 0-h serum-treated peptides ([Chan et al., 2013]).

## MAMPAFTTDH-NH2 [CTX-1]
Human male serum, 37°C, 24 h, RP-HPLC at 214 nm
  detection of peptide in human serum over time: could be detected up to 24 h
Lipid component removed by centrifugation, human male serum (lipid removed by centrifugation, pre-incubated 15 min at 37°C), 8 h, RP-HPLC C12 peak area at 214 nm as % of 0-h serum-treated peptide, triplicate, mean, read-out: peptide remaining at the 8-h time point in human serum
  remaining at 8 h, 6.6 μM: > 18%

## QMARKADDAAG-NH2 [CTX-2]
Human male serum, 37°C, 0-24 h, RP-HPLC at 214 nm
  relative stability in human serum among the fragments (in words): most stable of the peptides tested

## YGPQALAR-NH2 [CTX-4]
Lipid component removed by centrifugation, human male serum (lipid removed by centrifugation, pre-incubated 15 min at 37°C), 3 h, RP-HPLC C12 peak area at 214 nm as % of 0-h serum-treated peptide, triplicate, mean, read-out: peptide remaining after 3 h in human serum
  remaining at 3 h, 6.6 μM: < 10%

From PMC6435586 (Frontiers in Pharmacology, 2019)
